Source: US3930838A, “S-benzyl-N,N-disec-butylthiocarbamate and its use as a rice field herbicide and a rice growth stimulant” (priority 1970, dated 1976)

Tests used:
rats = details: os, literature values; cited from earlier work
rice [1] = details: Belgian Pat. No. 728,265; cited from earlier work
rice [2] = test: Outdoor comparison of rice stimulating action of M3432 with lower homologues and isomers (Example 11); assay type: in vivo; details: 21 days after sowing
Procedure: In the province of Pavia, a test was carried out with outdoor treatments in a loam soil, on rice plots having a 12 m^2 surface each.
Formulations of 20% M3432 in emulsifiable oil were compared with 20% formulations in emulsifiable oil of S-benzyl-N,N-diisopropyl thiocarbamate; S-benzyl-N,N-diisobutylthiocarbamate; and S-benzyl-N,N-din.butylthiocarbamate employing quantities of 4, 6 and 20 kg./ha.
For each treatment, the results were gathered on 20 plants 21 days after the sowing.

mice = details: os, literature values; cited from earlier work

Compound	Acute toxicity LD50 (rats)	Main roots (rice [2]; 4 kg./ha.)	Secondary roots (rice [2]; 4 kg./ha.)	Shoot (rice [2]; 4 kg./ha.)	Main roots (rice [2]; 6 kg./ha.)	Secondary roots (rice [2]; 6 kg./ha.)	Shoot (rice [2]; 6 kg./ha.)	Main roots (rice [2]; 20 kg./ha.)	Secondary roots (rice [2]; 20 kg./ha.)	Shoot (rice [2]; 20 kg./ha.)	further results
O=[N+]([O-])c1ccc(Oc2ccc(Cl)cc2Cl)cc1 [Nitrofen, 2,4-dichlorophenyl-4'-nitrophenylether]	3000 mg/kg										
Oc1c(Cl)c(Cl)c(Cl)c(Cl)c1Cl [Pentachlorophenol]	78 to 280 mg/kg										
CCC(=O)Nc1ccc(Cl)c(Cl)c1 [Propanil, N(3,4-dichlorophenyl)-propionamide]	1384 mg/kg										
CCN(CC)C(=O)SCc1ccccc1 [S-benzyl-N,N-diethylthiocarbamate]											Aggressiveness towards rice compared with ring-substituted monothiocarbamates (rice [1]): more aggressive towards the rice
CC(C)CN(CC(C)C)C(=O)SCc1ccccc1 [S-benzyl-N,N-diisobutylthiocarbamate]		3.21 No.	1.68 No.	5.25 cm.	2.76 No.	1.57 No.	4.21 cm.	2.59 No.	1.52 No.	3.96 cm.	
CC(C)N(C(=O)SCc1ccccc1)C(C)C [S-benzyl-N,N-diisopropylthiocarbamate, S-benzyl-N,N-diisopropyl thiocarbamate]		3.45 No.	2.52 No.	5.36 cm.	3.67 No.	1.63 No.	5.44 cm.	2.79 No.	1.21 No.	4.03 cm.	
CCCCN(CCCC)C(=O)SCc1ccccc1 [S-benzyl-N,N-din.butyl-thiocarbamate, S-benzyl-N,N-din.butylthiocarbamate]		3.26 No.	1.78 No.	4.76 cm.	2.81 No.	1.94 No.	5.24 cm.	1.94 No.	2.05 No.	2.34 cm.	
CCN(CC)C(=O)SCc1ccc(Cl)cc1 [Saturn, S(4-chlorobenzyl)N,N-diethylthiocarbamate]											Acute toxicity LD50 (mice): 560 mg/kg
COC(=O)Nc1ccc(Cl)c(Cl)c1 [Swep, methyl-N-(3,4-dichlorophenyl)carbamate]	552 mg/kg										
